Test results published in PubChem BioAssay AID653 (University of Pittsburgh Molecular Library Screening Center, 2007).
The source made the active and inactive calls. No rule for the calls is given here.

target: Genome polyprotein (West Nile virus) (UniProt P06935); assay: West Nile NS2B-NS3 proteinase blockers – biochemical, confirmation, dose response (AID 653); conditions: WNV NS2B-NS3 protease enzymatic assay, fluorescence
Sequence (P06935 1371-1501 limits assumed): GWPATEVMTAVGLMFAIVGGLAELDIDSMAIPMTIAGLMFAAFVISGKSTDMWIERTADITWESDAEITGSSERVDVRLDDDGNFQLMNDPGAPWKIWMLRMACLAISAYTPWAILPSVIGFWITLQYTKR
Sequence (P06935 1502-1679 limits assumed): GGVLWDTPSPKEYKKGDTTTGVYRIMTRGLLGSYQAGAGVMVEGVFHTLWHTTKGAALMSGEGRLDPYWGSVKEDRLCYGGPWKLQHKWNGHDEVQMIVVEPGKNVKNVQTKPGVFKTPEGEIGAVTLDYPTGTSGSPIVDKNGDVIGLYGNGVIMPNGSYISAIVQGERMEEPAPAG

SMILES	IC50
COc1ccc(OC)c(C2C(C(N)=O)=C(C)Nc3nc(-c4cccc(Cl)c4)nn32)c1 (stereo not given)	> 50 µM (inactive)
C/C(CC1(O)C(=O)N(Cc2ccccc2)c2ccccc21)=N\O (stereo not given)	> 50 µM (inactive)
COc1ccc(N=CC2=C(O)CCCC2=O)cc1	34.1 µM
COC(=O)CSC1=C(C#N)C(c2ccc(C)cc2)C2=C(CCCC2=O)N1 (stereo not given)	> 50 µM (inactive)
COc1cccc(NC(=O)CSc2nc3n[nH]c(C)c3c(=N)n2-c2cccc(OC)c2)c1	> 50 µM (inactive)
